Results on six compounds are retold here after US11857601B2, “Pharmaceutical composition for cancer treatment comprising fusion protein including IL-2 protein and CD80 protein and anticancer drug” (GI INNOVATION, INC., priority 2020, dated 2024).

One assay has as its system Renca cells. The experiment in a line: mGI-101 and Lenvatinib in Renca allotransplanted tumor model. It counts as in vivo, BALB/c mice. The note with it: mGI-101 twice a week (BIW), Lenvatinib daily, 10 mice per group. As for the experimental part: Renca cells were purchased from ATCC (USA) and cultured in RPMI1640 medium (Gibco) containing 10% FBS (Gibco) and 1% antibiotic/antifungal agent (Gibco). The cultured cells were harvested using trypsin (Gibco) and then suspended in PBS. In order to establish an allotransplanted tumor model, 5×10^6 Renca cells were subcutaneously injected into the back of BALB/c female mice (8-week-old).
A certain period of time after cell inoculation of the tumor grafts of the mice, the tumor volume was measured for animals with no abnormalities in the health condition of the animals, and the mice were randomly selected and assigned, each group including 10 mice.
The death of the mouse, the type of general symptoms, the date of onset, and the severity of symptoms were observed once a day during the test period, and recorded for each subject.
(§1) The tumor volume before administration of each subject was set as the value measured at the time of grouping, and the anti-tumor efficacy was evaluated as compared with the vehicle control.
(§2) All statistical calculations were performed using Prism 8.0 (Graph Pad Software Inc, USA). The comparison of tumor volume measurements was made through two-way analysis of variance followed by Tukey's multiple comparison test. A p value of less than 0.05 was considered significant.

The test system of assay [1] is CT26 cells. The experiment in a line: mGI-101 and Lenvatinib in CT26 allotransplanted tumor model. The class given is in vivo, BALB/c mice. On the procedure:
CT26 cells were purchased from ATCC (USA) and cultured in RPMI1640 medium (Gibco) containing 10% FBS (Gibco) and 1% antibiotic/antifungal agent (Gibco). The cultured cells were harvested using trypsin (Gibco) and then suspended in PBS. In order to establish an allotransplanted tumor model, 1×10^6 CT26 cells were subcutaneously injected into the right flank of BALB/c female mice (7-week-old).
A certain period of time after the cell transplantation, the tumor volume was measured for animals with no abnormalities in the health condition of the animals, and the mice were assigned so that the average tumor volume of each group was less than 70-100 mm^3, each group including 10 mice.
In the case of Lenvatinib powder, the dose was calculated and weighed, and it was prepared to the dose concentration using a 0.5% methyl cellulose excipient. In order to minimize the loss of the test substance, the doses for 3 or 4 days were weighed, and prepared using the excipient on the day of administration and injected.
(§3) Clinical symptoms such as a disease and a behavioral change were observed once a day during the test period, and deceased animals were identified, and the mice were sacrificed when the tumor size reached a size of 4,000 mm^3.
(§4) The tumor volume before administration of each subject was set as the value measured at the time of grouping.
as §2

The subject of a further assay is EMT6 cells. The experiment in a line: mGI-101 and Paclitaxel in EMT6 allotransplanted tumor model. It counts as in vivo, BALB/c mice. On the procedure: EMT6 cells were purchased from ATCC (USA) and cultured in Waymouth MB 751/1 medium (WELGENE) containing 10% FBS (Gibco) and 1% antibiotic/antifungal agent (Gibco). The cultured cells were harvested using trypsin (Gibco), and then a high-concentration cell suspension (2×10^6 cells/0.4 mL) for 10 mice was prepare with PBS and stored on ice until injected into mice. In order to establish an allotransplanted tumor model, the skin was incised slightly away from the 4th nipple position from the upper right of the ventral region of BALB/c female mice (7-week-old), and the location of mammary fat pad at the incised site was identified, and then EMT6 cell line prepared inside the mammary fat pad was injected at 2×10^5 cells/40 uL/head.
A certain period of time after cell inoculation of the tumor grafts of the mice, the tumor volume was measured for animals with no abnormalities in the health condition of the animals, and the subjects were selected so that the average of each group reached less than 70-100 mm^3, and the selected animals were assigned as evenly as possible based on tumor volume and body weight, each group including 10 animals. As shown in Table 24 and FIG. 106, the test groups were configured and the test substances were administered.
as §3, §1, §2

For assay [2], the system named is CD8+ T cells and CD4+/FoxP3+ Treg cells. Nature of the assay: Proliferation of CD8+ T cells and Treg cells in PBMCs (Exp. Ex. 10). The class given is cell-based, human. On the procedure: Human PBMCs were purchased from Allcells (Lot #3014928, USA). […] CellTrace CFSE dye was used, which was reacted with the human PBMCs under a light-blocking condition at […] for 20 minutes. The cells were labeled with CFSE by being reacted with 1 μM CellTrace CFSE dye at 37° C. for 20 minutes. CFSE not bound to the cells was removed by being reacted for 5 minutes with a culture medium having a 5-fold volume of the staining reaction solution and then by being centrifuged at 1,300 rpm for 5 minutes. The CFSE-labeled PBMCs were resuspended in the culture medium (RPMI1640 medium containing 10% fetal bovine serum, 10 mM HEPES, 100 U/ml penicillin/streptomycin, 1 mM sodium pyruvate, 55 μM 2-mercaptoethanol, 1 mM non-essential amino acid, and 2 mM L-glutamine), and then added to a 96-well microplate at 1×10^5 cells per well.
The incubated cells were examined for their degree of proliferation by measuring, with FACS analysis using anti-human CD4-PE antibody (BioLegend, USA), anti-human CD8-PE/Cy7 antibody (BioLegend, USA), and anti-human FoxP3-APC antibody (BioLegend, USA), a proportion of CD8+ T cells that had not been labeled with CFSE.

The subject of a further assay is MDA-MB-231 cells. Nature of the assay: GI101 and Keytruda in humanized mice xenotransplanted with MDA-MB-231. It counts as in vivo, human. On the procedure: Fetal bovine serum (FBS, 16000-044, Thermofisher scientific, USA), penicillin-streptomycin; 10,000 units/ml penicillin and 10,000 μg/ml streptomycin (15140122, Thermofisher scientific, USA); and RPMI1640 (A1049101, Thermofisher scientific, USA) per 100 ml were mixed and used.
The cells were suspended using Trypsin-EDTA (Cat. 25200-072, Thermofisher scientific, USA). The suspended cells were collected by centrifugation (125×g, 5 minutes) using a centrifuge, transferred to a new medium and a new flask, and passage cultured. The cultured cells were put to a centrifugation tube on the day of cell line transplantation and then collected. […] 8-week-old female NSGb2m (NOD.Cg-B2m^tm1UncPrkdc^scidIl2rg^tm1Wjl/SzJ) mice were purchased from Joongang Bio (Korea) and used for the test. The body weight was measured the next day after the end of the quarantine and acclimation period, and then the human-derived PBMC cell suspension (5×10^6 cells/0.2 ml) prepared for healthy animals was filled into a disposable syringe and administered to the caudal vein of the animals. General symptoms were observed once a day after cell transplantation.
A certain period of time after the cell transplantation, the tumor volume was measured for animals with no abnormalities in the health condition of the animals, and 32 subjects were selected so that the average of each group reached 40 to 80 mm^3. The selected animals were grouped into a total of 4 groups as evenly as possible based on tumor volume and body weight, each group including 8 animals.
General symptoms such as appearance, behavior, and excrement were observed once a day during the observation period, and deceased animals were identified. Body weight was measured on the day of cell line transplantation, twice a week, and on the day of animal sacrifice. The major axis (maximum length, L) and minor axis (perpendicular width, W) of the tumor were measured using a caliper (Digital caliper, mitutoyo, Japan) three times a week during the observation period, and the tumor volume (TV) was calculated by substituting them into the following equations.
as §4

In assay [3] the test system is CT26 cells. The experiment in a line: mGI-101 and Axitinib in CT26 allotransplanted tumor model.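 Note: subcutaneous CT26 syngeneic tumors in male BALB/c mice, dosing started once tumors were near 50 mm^3, drugs given orally or intraperitoneally for up to 3 weeks.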 To be noted: mGI-101 3 mg/kg IP, Axitinib 30 mg/kg PO.
Experimental: (§5) Mouse-derived colorectal cancer cells, CT26 (Mus musculus, Colon adenocarcinoma), and mouse-derived lung cancer cells, LL/2 (Mus musculus, Lung adenocarcinoma), were purchased from ATCC (USA) and used for the test. The cells to be used for the test were thawed, mixed with RPMI1640 (A1049101, Thermofisher scientific) medium containing 10% FBS (fetal bovine serum, Gibco, 10082-147), and then placed in a cell culture flask, and cultured in a 37° C., 5% CO2 incubator. The cells were washed with PBS, and then the cells were isolated using Trypsin-EDTA (15090, Gibco), and centrifugation (125×g, 5 minutes) was performed to discard the supernatant, and then the cells were suspended in a new medium to obtain the cell suspension. The viability of the cells was identified, and then a cell line was prepared by diluting in a medium to a concentration of 5.0×10^6 cells/mL.
(§6) 6-week-old male BALB/cAnHsd mice or C57BL/6NHsd mice were purchased and used for the test. After the end of the acclimation period of 7 days, the cells were transplanted into healthy animals. The cell suspension (5×10^6 cells/mL) was dispensed, and filled into a disposable syringe, and transplantation of the suspension was performed by subcutaneous administration at 0.1 mL/head in the right dorsal region of the animals. General symptoms were observed once a day during the engraftment and growth period after cell line transplantation.
(§7) After the inoculation of the cell line was performed, when the tumor size at the site to which the cell line was transplanted reached about 50 mm^3, the tumor size of each group was distributed as uniformly as possible according to the ranked tumor size.
(§8) The test substance was administered orally or intraperitoneally, and administered for 3 weeks depending on the composition of the test group. In the case of oral administration, the animals were fixed with the cervical spine skin fixation method, and administered directly into the stomach using a sonde for oral administration. In the case of intraperitoneal administration, the animals were fixed with the cervical spine skin fixation method, and administered intraperitoneally using a syringe equipped with a 26 gauge needle. The administration rate was not to exceed 200 μl/min.
Syngeneic model was prepared by subcutaneously transplanting the CT26 cell line into Balb/c mice, and then the test substance was administered to evaluate the anticancer effect.
A further assay concerns LL/2 cell line. The experiment in a line: mGI-101 and Axitinib in LL/2 allotransplanted tumor model. The note with it: mGI-101 3 mg/kg IP, Axitinib 30 mg/kg PO. The class given is in vivo, C57BL/6 mice.
Assay [4] concerns CT26 (mouse colon carcinoma) cells. The experiment in a line: mGI-101 and Galunisertib in CT26 allotransplanted tumor model. The class given is in vivo, BALB/cAnHsd mice. To be noted: mean ± SD, mGI-101 3 mg/kg IP, Galunisertib 75 mg/kg PO. As for the experimental part:
6-week-old male BALB/cAnHsd mice were purchased and used for the test.
The tumor size was measured three times a week for 3 weeks from the day of start of administration of the test substance. The major axis and minor axis of the tumor were measured using a caliper, and the tumor size (tumor volume, TV) was calculated using the following equations. TV (mm^3)=(W^2×L)/2 [Equation 1]

The mark [5] stands for this setting: end of the experiment, 10 mice per group.
Where [6] appears, read: day 42 vs day 21 after tumor transplantation, 8 animals per group.

Marks after values point to notes of the source that are not given here.

Experimental for LL/2 cell line: as §5, §6, §7, §8
Syngeneic model was prepared by subcutaneously transplanting the LL/2 cell line into C57BL/6 mice, and then the test substance was administered to evaluate the anticancer effect.

With `COc1cc2nccc(Oc3ccc(NC(=O)NC4CC4)c(Cl)c3)c2cc1C(N)=O` [Lenvatinib], in the assay on Renca cells, the “number of mice with tumor growth inhibition rate of 30% or more” value was found to be 4 mice, the “number of mice with tumor growth inhibition rate of 50% or more” value amounted to 2 mice and the “number of mice with tumor growth inhibition rate of 80% or more” value is “no mouse”. Besides, in the assay with CT26 cells [1] (setting [5]), the “number of mice with tumor growth inhibition rate of 30% or more” value was 6 mice, the “number of mice with tumor growth inhibition rate of 50% or more” value is 4 mice and the “number of mice with tumor growth inhibition rate of 80% or more” value is 1 mice. The “anticancer effect (tumor size) compared with the control” value in the assay with CT26 cells [1] (mGI-101 3 mg/kg i.v. QW, Lenvatinib 3 mg/kg p.o. daily, Lenvatinib day 18, 21, combination day 16, 18, 21) is recorded as “statistically significant anticancer effect”.
For `CC(=O)O[C@H]1C(=O)[C@@]2(C)[C@H]([C@H](OC(=O)c3ccccc3)[C@]3(O)C[C@H](OC(=O)[C@H](O)[C@@H](NC(=O)c4ccccc4)c4ccccc4)C(C)=C1C3(C)C)[C@]1(OC(C)=O)CO[C@@H]1C[C@@H]2O` [Paclitaxel, reference compound], in the assay on EMT6 cells (EMT6, 10 animals per group), the “number of mice with tumor growth inhibition rate of 30% or more” value is listed as 7 mice, the “number of mice with tumor growth inhibition rate of 50% or more” value is on record as 4 mice and the “number of mice with tumor growth inhibition rate of 80% or more” value came to 2 mice. Further, the “tumor size vs control” value in the assay with EMT6 cells (day 13, mGI-101 3 mg/kg i.v. QW, Paclitaxel 10 mg/kg i.p. 7 consecutive days) is recorded as “statistically significantly lower”.
For the compound “GI101C2: comparative fusion protein: Fc domain, linker, IL-2 variant (2M) (R38A, F42A); SEQ ID NO: 19”, the “proportion of CD8+ T cells” value in assay [2] (anti-CD3ε 1 μg/ml, 7 days, compared with no stimulus, anti-CD3 antibody alone and GI101C1) was “significant increase”. In addition, in assay [2] (compared with no stimulus and anti-CD3 antibody alone), the “proliferation of CD4+/FoxP3+ Treg cells” value was “significant increase”.
For the compound “Keytruda: Keytruda (Pembrolizumab, MSD), an anti-PD-1 antibody [reference compound]”, the tumor growth result in the assay on MDA-MB-231 cells (GI101 6 mg/kg, Keytruda 5 mg/kg, 4 administrations, compared with the control (hIgG4)) is “tumor growth inhibition”. Besides, in the assay with MDA-MB-231 cells (setting [6]), the “number of mice with tumor growth inhibition rate of 30% or more” value came to 7 mice, the “number of mice with tumor growth inhibition rate of 50% or more” value is on record as 5 mice and the “number of mice with tumor growth inhibition rate of 80% or more” value came out at 3 mice.
As for `CNC(=O)c1ccccc1Sc1ccc2c(/C=C/c3ccccn3)n[nH]c2c1` [Axitinib, reference compound], the Tumor size was 61.67 ± 12.58 mm^3 in the assay with CT26 cells [3] (Day 0, mean ± SD); 261.76 ± 61.86 mm^3 in the assay with CT26 cells [3] (Day 5, mean ± SD); 354.05 ± 104.90 mm^3 with CT26 cells [3] (Day 7, mean ± SD); 442.98 ± 148.70 mm^3 with CT26 cells [3] (Day 9, mean ± SD); 529.85 ± 206.76 mm^3 in the assay on CT26 cells [3] (Day 12, mean ± SD); 671.72 ± 303.14* mm^3 in the assay on CT26 cells [3] (Day 14, mean ± SD). Besides, the Tumor size in the assay with CT26 cells [3] (Day 16, mean ± SD) is on record as 970.72 ± 475.99** mm^3; in the assay on CT26 cells [3] (Day 19, mean ± SD), 1129.12 ± 639.16**** mm^3; in the assay with CT26 cells [3] (Day 21, mean ± SD) it was 1710.57 ± 1133.79**** mm^3; in the assay with LL/2 cell line (Day 0, mean ± SD), 55.77 ± 11.25 mm^3; in the assay with LL/2 cell line (Day 2, mean ± SD) it was 88.73 ± 21.26 mm^3; with LL/2 cell line (Day 5, mean ± SD), 179.31 ± 52.62 mm^3. Moreover, the Tumor size is 362.30 ± 97.92 mm^3 with LL/2 cell line (Day 7, mean ± SD); 584.17 ± 172.94 mm^3 in the assay with LL/2 cell line (Day 9, mean ± SD); 892.90 ± 256.88 mm^3 with LL/2 cell line (Day 12, mean ± SD); 1292.27 ± 385.43 mm^3 in the assay with LL/2 cell line (Day 14, mean ± SD); 1775.26 ± 462.50 (9) mm^3 in the assay on LL/2 cell line (Day 16, mean ± SD); 2551.08 ± 695.31 (9) mm^3 with LL/2 cell line (Day 19, mean ± SD). The Tumor size in the assay on LL/2 cell line (Day 21, mean ± SD) was 4236.33 ± 1060.18 (9)**^,## mm^3.
Take `Cc1cccc(-c2nn3c(c2-c2ccnc4ccc(C(N)=O)cc24)CCC3)n1` [Galunisertib, reference compound]: the Tumor size is 61.98 ± 12.23 mm^3 in assay [4] (Day 0), 187.20 ± 55.14 mm^3 in assay [4] (Day 2), 260.69 ± 78.70 mm^3 in assay [4] (Day 4) and 398.78 ± 146.30 mm^3 in assay [4] (Day 7). For the same compound, the values for the Tumor growth inhibition in assay [4] (Day 2), in assay [4] (Day 4) and in assay [4] (Day 7) were 15.60 ± 38.26%, 34.09 ± 27.14% and 21.12 ± 34.98%, respectively.
